The results in this text go back to patent US11339171B2, “MDM2 inhibitors” (Gan & Lee Pharmaceuticals, priority 2017, dated 2022).

For one assay, the target named is T1, MDM2 (Homo sapiens, UniProt Q00987).
T1 construct: made in house
The assay is described as follows: Inhibition test of MDM2-P53 (GST-MDM2, Biotin-P53, Anti-GST-Tb, SA-XL665). It is filed as binding. As to conditions: for inhibitory effect on MDM2 compared with positive control compound HDM201: labels are Example numbers, the compounds with S-configuration are meant. In short, it runs like this: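 Binding was measured by TR-FRET with GST-MDM2 at 4 nM final in PBS with 0.1% BSA, 5 mM DTT and 1 mM AEBSF. Compounds were tested as twelve-point 5-fold dilutions and incubated with the detection mix for 90 min at 25 °C with shaking before plate-reader reading and curve fitting.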

Assay [1] has as its system human osteosarcoma cell line SJSA-1. The assay is described as follows: Inhibition of proliferation of human osteosarcoma cell line SJSA-1 (DAPI staining, In Cell Analyzer). As to conditions: for IC50: Homo sapiens, SJSA-1, 72 h, read-out: IC50 (nM), inhibitory activity on proliferation of human osteosarcoma cell line SJSA-1, SJSA-1, incubated 72 h; for inhibitory effect on human osteosarcoma cell line SJSA-1 compared with positive control compound HDM201: labels are Example numbers, the compounds with S-configuration are meant.

T1 sequence (Q00987 whole entry): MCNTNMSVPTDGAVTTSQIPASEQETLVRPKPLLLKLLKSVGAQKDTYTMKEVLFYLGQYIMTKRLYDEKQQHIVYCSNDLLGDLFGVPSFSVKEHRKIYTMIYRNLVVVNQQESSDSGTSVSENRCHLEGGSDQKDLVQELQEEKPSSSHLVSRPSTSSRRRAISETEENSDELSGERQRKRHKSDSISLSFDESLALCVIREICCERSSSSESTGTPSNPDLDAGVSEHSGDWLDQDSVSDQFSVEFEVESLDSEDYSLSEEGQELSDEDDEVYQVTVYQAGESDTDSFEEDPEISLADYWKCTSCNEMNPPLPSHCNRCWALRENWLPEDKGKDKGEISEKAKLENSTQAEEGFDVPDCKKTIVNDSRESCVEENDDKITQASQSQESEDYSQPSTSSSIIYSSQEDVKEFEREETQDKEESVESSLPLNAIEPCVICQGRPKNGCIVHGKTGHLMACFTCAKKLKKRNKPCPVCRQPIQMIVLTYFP

On to `CCOc1ncc(-c2nc3c(n2C(C)C)[C@@]2(C(=O)Nc4cc(Cl)ccc42)N(c2cc(Cl)ccc2F)C3=O)c(OC)n1` [Example S-97, (S)-6-chloro-5′-(5-chloro-2-fluorophenyl)-2′-(2-ethoxy-4-methoxypyrimidin-5-yl)-3′-isopropyl-3′H-spiro[dihydroindole-3,4′-pyrrolo[3,4-d]imidazole]-2,6′(5′H)-dione], for which the IC50 was determined as 3.94 nM at MDM2 and 167 nM in assay [1].

For `COc1ncc(-c2nc3c(n2C(C)C)C2(C(=O)Nc4cc(Cl)ccc42)N(c2cc(Cl)cnc2C)C3=O)c(OC)n1` (stereo not shown) [Example 42, 6-chloro-5′-(5-chloro-2-methylpyridin-3-yl)-2′-(2,4-dimethoxypyrimidin-5-yl)-3′-isopropyl-3′H-spiro[dihydroindole-3,4′-pyrrolo[3,4-d]imidazole]-2,6′(5′H)-dione], the “inhibitory effect on MDM2 compared with positive control compound HDM201” value on MDM2 is “better”. Besides, the “inhibitory effect on human osteosarcoma cell line SJSA-1 compared with positive control compound HDM201” value in assay [1] is reported as “better”.

Consider `CCOc1cc(OC)c(-c2nc3c(n2C(C)C)C2(C(=O)Nc4cc(Cl)ccc42)N(c2cc(Cl)cnc2C)C3=O)cn1` (stereo not shown) [Example 96, 6-chloro-5′-(5-chloro-2-methylpyridin-3-yl)-2′-(6-ethoxy-4-methoxypyridin-3-yl)-3′-isopropyl-3′H-spiro[dihydroindole-3,4′-pyrrolo[3,4-d]imidazole]-2,6′(5′H)-dione], for which the “inhibitory effect on MDM2 compared with positive control compound HDM201” value on MDM2 is on record as “better”. The “inhibitory effect on human osteosarcoma cell line SJSA-1 compared with positive control compound HDM201” value in assay [1] was “better”.

As for `COc1cc(N)c(F)cc1-c1nc2c(n1C(C)C)[C@@]1(C(=O)Nc3cc(Cl)ccc31)N(c1cc(Cl)ccc1C)C2=O` [Example S-75, (S)-2′-(4-amino-5-fluoro-2-methoxyphenyl)-6-chloro-5′-(5-chloro-2-methylphenyl)-3′-isopropyl-3′H-spiro[dihydroindole-3,4′-pyrrolo[3,4-d]imidazole]-2,6′(5′H)-dione], the IC50 amounted to 0.97 nM against MDM2 and 9.84 nM in assay [1].

Regarding `COc1cc(N)ccc1-c1nc2c(n1C(C)C)[C@@]1(C(=O)Nc3cc(Cl)ccc31)N(c1ccc(F)c(Cl)c1)C2=O` [Example S-73, (S)-2′-(4-amino-2-methoxyphenyl)-6-chloro-5′-(3-chloro-4-fluorophenyl)-3′-isopropyl-3′H-spiro[dihydroindole-3,4′-pyrrolo[3,4-d]imidazole]-2,6′(5′H)-dione], the IC50 against MDM2 was 1.1 nM; in assay [1], 251 nM.

In the case of `COc1cc(C2CC2)ccc1-c1nc2c(n1C(C)C)[C@@]1(C(=O)Nc3cc(Cl)ccc31)N(c1cccc(Cl)c1)C2=O` [Example S-116, (S)-6-chloro-5′-(3-chlorophenyl)-2′-(4-cyclopropyl-2-methoxyphenyl)-3′-isopropyl-3′H-spiro[dihydroindole-3,4′-pyrrolo[3,4-d]imidazole]-2,6′(5′H)-dione], the IC50 is 4.18 nM against MDM2 and 213 nM in assay [1].

On to `COc1ccc(CC(=O)N(C)C)cc1-c1nc2c(n1C(C)C)[C@@]1(C(=O)Nc3cc(Cl)ccc31)N(c1cc(Cl)ccc1C)C2=O` [Example S-70, (S)-2-(3-(6-chloro-5′-(5-chloro-2-methylphenyl)-3′-isopropyl-2,6′-dioxo-5′,6′-dihydro-3′H-spiro[dihydroindole-3,4′-pyrrolo[3,4-d]imidazole]-2′-yl)-4-methoxyphenyl)-N,N-dimethylacetamide], for which the IC50 amounted to 0.94 nM against MDM2 and 73.6 nM in assay [1].

Take `Cc1ccc(Cl)cc1N1C(=O)c2nc(-c3ccccc3OC(C)C)n(C(C)C)c2[C@@]12C(=O)Nc1cc(Cl)ccc12` [Example S-34, (S)-6-chloro-5′-(5-chloro-2-methylphenyl)-2′-(2-isopropoxyphenyl)-3′-isopropyl-3′H-spiro[dihydroindole-3,4′-pyrrolo[3,4-d]imidazole]-2,6′(5′H)-dione]: the IC50 worked out at 139 nM on MDM2 and 619 nM in assay [1].

With `COc1ccc(C#N)cc1-c1nc2c(n1C(C)C)[C@]1(C(=O)Nc3cc(Cl)ccc31)N(c1cc(Cl)ccc1C)C2=O` [Example R-13, (R)-3-(6-chloro-5′-(5-chloro-2-methylphenyl)-3′-isopropyl-2,6′-dioxo-5′,6′-dihydro-3′H-spiro[dihydroindole-3,4′-pyrrolo[3,4-d]imidazole]-2′-yl)-4-methoxybenzonitrile], the figures for the IC50 (on MDM2; in assay [1]) were 121 nM and 1120 nM, respectively.

Take `COc1ccc(-c2nc3c(n2C(C)C)C2(C(=O)Nc4cc(Cl)ccc42)N(c2cc(Cl)cnc2C)C3=O)c(OC)c1` (stereo not shown) [Example 61, 6-chloro-5′-(5-chloro-2-methylpyridin-3-yl)-2′-(2,4-dimethoxyphenyl)-3′-isopropyl-3′H-spiro[dihydroindole-3,4′-pyrrolo[3,4-d]imidazole]-2,6′(5′H)-dione]: the “inhibitory effect on MDM2 compared with positive control compound HDM201” value against MDM2 is given as “better”. Also, the “inhibitory effect on human osteosarcoma cell line SJSA-1 compared with positive control compound HDM201” value in assay [1] is listed as “better”.

As for `COc1cc(N(C)C)ncc1-c1nc2c(n1C(C)C)[C@]1(C(=O)Nc3cc(Cl)ccc31)N(c1cccc(Cl)c1)C2=O` [Example R-113, (R)-6-chloro-5′-(3-chlorophenyl)-2′-(6-(dimethylamino)-4-methoxypyridin-3-yl)-3′-isopropyl-3′H-spiro[dihydroindole-3,4′-pyrrolo[3,4-d]imidazole]-2,6′(5′H)-dione], the values for the IC50 (against MDM2; in assay [1]) were 50.5 nM and 2170 nM, respectively.

Regarding `COc1nc(N(C)C)ccc1-c1nc2c(n1C(C)C)[C@]1(C(=O)Nc3cc(Cl)ccc31)N(c1cc(Cl)ccc1C)C2=O` [Example R-157, (R)-6-chloro-5′-(5-chloro-2-methylphenyl)-2′-(6-(dimethylamino)-2-methoxypyridin-3-yl)-3′-isopropyl-3′H-spiro[dihydroindole-3,4′-pyrrolo[3,4-d]imidazole]-2,6′(5′H)-dione], the values for the IC50 (at MDM2; in assay [1]) were 370 nM and 1800 nM, respectively.

Consider `COc1cc(N(C)C)c(C)cc1-c1nc2c(n1C(C)C)[C@]1(C(=O)Nc3cc(Cl)ccc31)N(c1cc(Cl)ccc1C)C2=O` [Example R-91, (R)-6-chloro-5′-(5-chloro-2-methylphenyl)-2′-(4-(dimethylamino)-2-methoxy-5-methylphenyl)-3′-isopropyl-3′H-spiro[dihydroindole-3,4′-pyrrolo[3,4-d]imidazole]-2,6′(5′H)-dione], for which the IC50 on MDM2 was 461 nM; in assay [1], 993 nM.

Turning to `COc1ncc(-c2nc3c(n2C(C)C)[C@@]2(C(=O)Nc4cc(Cl)ccc42)N(c2ccc(C)c(Cl)c2)C3=O)c(OC)n1` [Example S-20, (S)-6-chloro-5′-(3-chloro-4-methylphenyl)-2′-(2,4-dimethoxypyrimidin-5-yl)-3′-isopropyl-3′H-spiro[dihydroindole-3,4′-pyrrolo[3,4-d]imidazole]-2,6′(5′H)-dione], the IC50 was determined as 4.39 nM at MDM2 and 48.1 nM in assay [1].

Turning to `COc1ncc(-c2nc3c(n2C(C)C)[C@]2(C(=O)Nc4cc(Cl)ccc42)N(c2cc(Cl)ccc2F)C3=O)c(OC)n1` [Example R-44, (R)-6-chloro-5′-(5-chloro-2-fluorophenyl)-2′-(2,4-dimethoxypyrimidin-5-yl)-3′-isopropyl-3′H-spiro[dihydroindole-3,4′-pyrrolo[3,4-d]imidazole]-2,6′(5′H)-dione], the IC50 came out at 51.1 nM against MDM2 and 1330 nM in assay [1].

In the case of `COc1cc(N(C)C)ncc1-c1nc2c(n1C(C)C)[C@@]1(C(=O)Nc3cc(Cl)ccc31)N(c1cc(Cl)cnc1C)C2=O` [Example S-155, (S)-6-chloro-5′-(5-chloro-2-methylpyridin-3-yl)-2′-(6-(dimethylamino)-4-methoxypyridin-3-yl)-3′-isopropyl-3′H-spiro[dihydroindole-3,4′-pyrrolo[3,4-d]imidazole]-2,6′(5′H)-dione], the values for the IC50 (on MDM2; in assay [1]) were 0.95 nM and 14.6 nM, respectively.

On to `CCOc1cc(OC)c(-c2nc3c(n2C(C)C)[C@]2(C(=O)Nc4cc(Cl)ccc42)N(c2cc(Cl)ccc2C)C3=O)cn1` [Example R-72, (R)-6-chloro-5′-(5-chloro-2-methylphenyl)-2′-(6-ethoxy-4-methoxypyridin-3-yl)-3′-isopropyl-3′H-spiro[dihydroindole-3,4′-pyrrolo[3,4-d]imidazole]-2,6′(5′H)-dione], for which the IC50 against MDM2 was found to be 214 nM; in assay [1], 3480 nM.

In the case of `COc1cc(N)ccc1-c1nc2c(n1C(C)C)[C@]1(C(=O)Nc3cc(Cl)ccc31)N(c1cc(Cl)ccc1C)C2=O` [Example R-49, (R)-2′-(4-amino-2-methoxyphenyl)-6-chloro-5′-(5-chloro-2-methylphenyl)-3′-isopropyl-3′H-spiro[dihydroindole-3,4′-pyrrolo[3,4-d]imidazole]-2,6′(5′H)-dione], the IC50 against MDM2 was determined as 71.4 nM; in assay [1], 1490 nM.

With `COc1cc(C(F)(F)F)ncc1-c1nc2c(n1C(C)C)C1(C(=O)Nc3cc(Cl)ccc31)N(c1cc(Cl)ccc1C)C2=O` (stereo not shown) [Example 138, 6-chloro-5′-(5-chloro-2-methylphenyl)-3′-isopropyl-2′-(4-methoxy-6-(trifluoromethyl)pyridin-3-yl)-3′H-spiro[dihydroindole-3,4′-pyrrolo[3,4-d]imidazole]-2,6′(5′H)-dione], the “inhibitory effect on MDM2 compared with positive control compound HDM201” value on MDM2 was “better”. Also, the “inhibitory effect on human osteosarcoma cell line SJSA-1 compared with positive control compound HDM201” value in assay [1] was “better”.

As to `COc1cc(-c2nc3c(n2C(C)C)[C@]2(C(=O)Nc4cc(Cl)ccc42)N(c2cc(Cl)ccc2C)C3=O)c(OC)cn1` [Example R-40, (R)-6-chloro-5′-(5-chloro-2-methylphenyl)-2′-(2,5-dimethoxypyridin-4-yl)-3′-isopropyl-3′H-spiro[dihydroindole-3,4′-pyrrolo[3,4-d]imidazole]-2,6′(5′H)-dione], the figures for the IC50 (at MDM2; in assay [1]) were 322 nM and 3090 nM, respectively.
